Data: PubChem BioAssay (NCI)
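Growth conditions: 96-well plates. Treatment: test compound, 48 hours, 5 concentrations. Analysis: linear interpolation between bracketing concentrations; unreached endpoints set to highest concentration. GI50 = concentration required for 50% inhibition of growth. At the TGI there is no net growth.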

Tests used:
Experiment in all cases: NCI anticancer screen, dose series, 48 h
SK-MEL-5 melanoma = test system: SK-MEL-5 melanoma
IGROV1 ovarian = test system: IGROV1 ovarian
LOX IMVI melanoma = test system: LOX IMVI melanoma
OVCAR-8 ovarian = test system: OVCAR-8 ovarian
NCI-H460 lung = test system: NCI-H460 lung
CCRF-CEM leukemia = test system: CCRF-CEM leukemia
HCT-116 colon = test system: HCT-116 colon
MDA-MB-435 = test system: MDA-MB-435
SW-620 colon = test system: SW-620 colon
HL-60(TB) leukemia = test system: HL-60(TB) leukemia

Row | Structure (SMILES) | GI50 (SK-MEL-5 melanoma) [µM] | TGI (SK-MEL-5 melanoma) [µM] | GI50 (IGROV1 ovarian) [µM] | TGI (IGROV1 ovarian) [µM] | GI50 (LOX IMVI melanoma) [µM] | TGI (LOX IMVI melanoma) [µM] | GI50 (OVCAR-8 ovarian) [µM] | TGI (OVCAR-8 ovarian) [µM] | GI50 (NCI-H460 lung) [µM] | TGI (NCI-H460 lung) [µM] | GI50 (CCRF-CEM leukemia) [µM] | TGI (CCRF-CEM leukemia) [µM] | GI50 (HCT-116 colon) [µM] | TGI (HCT-116 colon) [µM] | GI50 (MDA-MB-435) [µM] | TGI (MDA-MB-435) [µM] | GI50 (SW-620 colon) [µM] | TGI (SW-620 colon) [µM] | GI50 (HL-60(TB) leukemia) [µM] | TGI (HL-60(TB) leukemia) [µM]
1 | COc1cc2c3c(c4c5ccccc5[nH]c4c2c(OC)c1OC)C(=O)N(CCN1CCCCC1)C3=O | 1.88 | 5.31 | 0.661 | 2.22 | 1.05 | 2.45 | 0.487 | 2.36 | 0.654 | 2.1 | 0.855 | > 100 | 0.351 | 1.46 | 1.48 | 3.27 | 0.474 | 2.56 | 8.15 | > 41
2 | COc1ccc(C(=O)O)c(Cc2ccc3ccccc3c2)c1 | – | > 100 | – | > 100 | – | > 100 | – | > 100 | – | > 100 | – | > 100 | – | > 100 | – | – | – | > 100 | – | > 100
3 | Cc1cc2c(c(N)c1C)C(=O)c1ccccc1C2=O | – | > 100 | – | > 100 | – | > 100 | – | > 100 | – | > 100 | – | > 100 | – | 50.4 | – | – | – | > 100 | – | > 100
4 | CC1CCC23COC(=O)C2C(O)CCC3C1(C)CC(O)c1ccoc1 (configuration not stated) | – | > 100 | – | > 100 | – | > 100 | – | > 100 | – | > 100 | – | > 100 | – | > 100 | – | – | – | > 100 | – | –
5 | COC(=O)NN1C(C)=C(C(=O)OC)C2(CCOC2=O)C1(C)O (configuration not stated) | – | – | – | > 100 | – | > 100 | – | > 100 | – | > 100 | – | > 100 | – | > 100 | – | – | – | > 100 | – | > 100
6 | COc1ccc(Cn2c(Br)c3c(c2-c2cc(OC)c(OC)c(OC)c2)CCc2sc(NC(C)=O)nc2-3)cc1 | 2.82 | 21.4 | 4.46 | > 100 | 4.45 | 42.8 | 4.7 | > 100 | 3.05 | > 100 | – | – | 3.4 | 14.6 | 0.613 | 4.36 | 3.63 | > 100 | 3.27 | 8.06
7 | COc1cc2c3c(n(CCCCl)c(=O)c2cc1OC)-c1ccc(C#N)cc1C3=O | 90.9 | > 100 | 3.64 | 23.1 | 3.43 | 19.4 | 6.3 | 34.4 | 10.8 | > 100 | 3.59 | > 100 | 15.2 | > 100 | > 100 | > 100 | 0.996 | > 100 | – | –
8 | CCN(CC)CCOc1ccc(C(=C2CCCCC2)c2ccc(OCCN(CC)CC)cc2)cc1 | – | 2.95 | – | 3.58 | – | 2.69 | – | 3.13 | – | 2.94 | – | 3.25 | – | 2.54 | – | – | – | 2.5 | – | 2.56
9 | BrC12c3ccccc3Sc3ccccc3C1(Br)c1ccccc12 (configuration not stated) | – | 30.8 | – | > 100 | – | 29.7 | – | > 100 | – | > 100 | – | 50.1 | – | 52.1 | – | – | – | > 100 | – | 29.1
10 | N#CC1=C(c2ccccc2)C(O)(c2ccccc2)NC1=O (configuration not stated) | – | > 100 | – | > 100 | – | > 100 | – | > 100 | – | > 100 | – | > 100 | – | > 100 | – | – | – | > 100 | – | > 100
11 | CCOC(=O)/C=C/c1ccccn1 | – | > 100 | – | > 100 | – | > 100 | – | > 100 | – | > 100 | – | > 100 | – | > 100 | – | – | – | > 100 | – | > 100
12 | CN(C)/C=N/c1nc2ncn(CCOC(=O)c3ccccc3)c2c(=O)[nH]1 | – | > 100 | – | > 100 | – | > 100 | – | > 100 | – | > 100 | – | > 100 | – | > 100 | – | – | – | > 100 | – | > 100
13 | O=C1C(N2C(=O)c3ccccc3C2=O)CN1C(COCc1ccccc1)c1ccc(OCc2ccccc2)cc1 (configuration not stated) | – | > 100 | – | > 100 | – | > 100 | – | > 100 | – | > 100 | – | > 100 | – | > 100 | – | – | – | > 100 | – | > 100
14 | COc1ccc(/C(C)=N/NC(N)=S)c(OC)c1 | – | > 100 | – | > 100 | – | > 100 | – | > 100 | – | > 100 | – | > 100 | – | > 100 | – | – | – | > 100 | – | > 100
15 | Oc1cc2c(cc1O)-c1[nH]ncc1CC2 | – | > 100 | – | > 100 | – | > 100 | – | > 100 | – | > 100 | – | 47.7 | – | > 100 | – | – | – | > 100 | – | 76.6
16 | O=C([O-])c1ccccc1Nc1ccccc1[O-].[Ni+3].[OH3+].[OH3+].[OH3+] | > 100 | > 100 | > 100 | > 100 | > 100 | > 100 | > 100 | > 100 | > 100 | > 100 | > 100 | > 100 | > 100 | > 100 | – | – | > 100 | > 100 | – | –
17 | COC(=O)C(Cc1nc2ccccc2[nH]c1=O)C(=O)C(=O)Nc1ccc(OC)cc1[N+](=O)[O-] (configuration not stated) | – | > 100 | – | > 100 | – | > 100 | – | > 100 | – | > 100 | – | > 100 | – | > 100 | – | – | – | > 100 | – | > 100
18 | O=C(O)C1OC(Oc2cc(O)c3c(=O)cc(-c4ccc(O)cc4)oc3c2)C(O)C(O)C1O (configuration not stated) | – | > 100 | – | – | – | > 100 | – | > 100 | – | > 100 | – | – | – | > 100 | – | – | – | > 100 | – | > 100
19 | CC(O[Si](C)(C)C)C1C=CC(C)n2c(=O)n(-c3ccccc3)c(=O)n21 (configuration not stated) | – | > 100 | – | > 100 | – | – | – | > 100 | – | – | – | – | – | > 100 | – | – | – | – | – | > 100
20 | C=C(CN1CCN(c2cccc(F)c2)CC1)c1ccc(C(=O)Nc2ccccc2N)cc1 | 1.91 | 17.2 | 0.333 | 3.9 | 1.67 | 13.1 | 1.99 | 47.9 | 3.95 | > 100 | – | – | 1.08 | 12.5 | 0.283 | 1.74 | 2.53 | > 100 | 0.357 | 2.26
